#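 The compound was tested at five concentrations on cells cultured in 96-well plates, with a 48-hour exposure period. TGI: concentration producing complete growth inhibition.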
# What was measured:
# Test in all cases: NCI anticancer screen, dose series, 48 h
# OVCAR-4 ovarian = tested on: OVCAR-4 ovarian
# MDA-N = tested on: MDA-N
# CCRF-CEM leukemia = tested on: CCRF-CEM leukemia
# HCT-15 colon = tested on: HCT-15 colon
# SK-MEL-28 melanoma = tested on: SK-MEL-28 melanoma
# U251 CNS = tested on: U251 CNS
# NCI-H460 lung = tested on: NCI-H460 lung
# NCI/ADR-RES ovarian = tested on: NCI/ADR-RES ovarian
# KM12 colon = tested on: KM12 colon
# HCC-2998 colon = tested on: HCC-2998 colon
# UACC-62 melanoma = tested on: UACC-62 melanoma
# MALME-3M melanoma = tested on: MALME-3M melanoma
# OVCAR-3 ovarian = tested on: OVCAR-3 ovarian
# ACHN renal = tested on: ACHN renal
# MOLT-4 leukemia = tested on: MOLT-4 leukemia
# T-47D breast = tested on: T-47D breast
# K-562 leukemia = tested on: K-562 leukemia
# CAKI-1 renal = tested on: CAKI-1 renal
# SF-539 CNS = tested on: SF-539 CNS
# COLO 205 colon = tested on: COLO 205 colon
# A549 NSCLC = tested on: A549 NSCLC
# PC-3 prostate = tested on: PC-3 prostate
# NCI-H23 lung = tested on: NCI-H23 lung
# NCI-H522 lung = tested on: NCI-H522 lung
# HOP-92 NSCLC = tested on: HOP-92 NSCLC
# IGROV1 ovarian = tested on: IGROV1 ovarian
# EKVX NSCLC = tested on: EKVX NSCLC
# HL-60(TB) leukemia = tested on: HL-60(TB) leukemia
# HOP-62 NSCLC = tested on: HOP-62 NSCLC
# SW-620 colon = tested on: SW-620 colon
# RXF 393 renal = tested on: RXF 393 renal
# HCT-116 colon = tested on: HCT-116 colon
# UO-31 renal = tested on: UO-31 renal
# BT-549 breast = tested on: BT-549 breast
# MDA-MB-231 breast = tested on: MDA-MB-231 breast
# SNB-19 CNS = tested on: SNB-19 CNS
# SF-268 CNS = tested on: SF-268 CNS
# SNB-75 CNS = tested on: SNB-75 CNS
# LOX IMVI melanoma = tested on: LOX IMVI melanoma
# HS 578T breast = tested on: HS 578T breast
# SR leukemia = tested on: SR leukemia
# MDA-MB-435 = tested on: MDA-MB-435
# 786-0 renal = tested on: 786-0 renal
# OVCAR-8 ovarian = tested on: OVCAR-8 ovarian
# SK-MEL-5 melanoma = tested on: SK-MEL-5 melanoma
# OVCAR-5 ovarian = tested on: OVCAR-5 ovarian
# SK-MEL-2 melanoma = tested on: SK-MEL-2 melanoma
# SF-295 CNS = tested on: SF-295 CNS
# DU-145 prostate = tested on: DU-145 prostate
# UACC-257 melanoma = tested on: UACC-257 melanoma
# A498 renal = tested on: A498 renal
# SN12C renal = tested on: SN12C renal
# MCF7 breast = tested on: MCF7 breast
# HT29 colon = tested on: HT29 colon
# RPMI-8226 leukemia = tested on: RPMI-8226 leukemia
# TK-10 renal = tested on: TK-10 renal
# M14 melanoma = tested on: M14 melanoma
# NCI-H226 lung = tested on: NCI-H226 lung
# SK-OV-3 ovarian = tested on: SK-OV-3 ovarian
smiles,measurement,setting,value
CC1=NN(C(=O)CC(=O)Nc2ccccc2C)C(=O)C1N=Nc1ccc(C(=O)O)cc1 (stereo not given),TGI,OVCAR-4 ovarian,> 100 µM
same,TGI,MDA-N,> 100 µM
same,TGI,CCRF-CEM leukemia,> 100 µM
same,TGI,HCT-15 colon,> 100 µM
same,TGI,SK-MEL-28 melanoma,> 100 µM
same,TGI,U251 CNS,> 100 µM
same,TGI,NCI-H460 lung,> 100 µM
same,TGI,NCI/ADR-RES ovarian,> 100 µM
same,TGI,KM12 colon,> 100 µM
same,TGI,HCC-2998 colon,> 100 µM
same,TGI,UACC-62 melanoma,> 100 µM
same,TGI,MALME-3M melanoma,> 100 µM
same,TGI,OVCAR-3 ovarian,> 100 µM
same,TGI,ACHN renal,> 100 µM
same,TGI,MOLT-4 leukemia,> 100 µM
same,TGI,T-47D breast,> 100 µM
same,TGI,K-562 leukemia,> 100 µM
same,TGI,CAKI-1 renal,> 100 µM
same,TGI,SF-539 CNS,> 100 µM
same,TGI,COLO 205 colon,> 100 µM
same,TGI,A549 NSCLC,> 100 µM
same,TGI,PC-3 prostate,> 100 µM
same,TGI,NCI-H23 lung,> 100 µM
same,TGI,NCI-H522 lung,> 100 µM
same,TGI,HOP-92 NSCLC,> 100 µM
same,TGI,IGROV1 ovarian,> 100 µM
same,TGI,EKVX NSCLC,> 100 µM
same,TGI,HL-60(TB) leukemia,> 100 µM
same,TGI,HOP-62 NSCLC,> 100 µM
same,TGI,SW-620 colon,> 100 µM
same,TGI,RXF 393 renal,> 100 µM
same,TGI,HCT-116 colon,> 100 µM
same,TGI,UO-31 renal,> 100 µM
same,TGI,BT-549 breast,> 100 µM
same,TGI,MDA-MB-231 breast,> 100 µM
same,TGI,SNB-19 CNS,> 100 µM
same,TGI,SF-268 CNS,> 100 µM
same,TGI,SNB-75 CNS,> 100 µM
same,TGI,LOX IMVI melanoma,> 100 µM
same,TGI,HS 578T breast,> 100 µM
same,TGI,SR leukemia,> 100 µM
same,TGI,MDA-MB-435,> 100 µM
same,TGI,786-0 renal,> 100 µM
same,TGI,OVCAR-8 ovarian,> 100 µM
same,TGI,SK-MEL-5 melanoma,> 100 µM
same,TGI,OVCAR-5 ovarian,> 100 µM
same,TGI,SK-MEL-2 melanoma,> 100 µM
same,TGI,SF-295 CNS,> 100 µM
same,TGI,DU-145 prostate,> 100 µM
same,TGI,UACC-257 melanoma,> 100 µM
same,TGI,A498 renal,> 100 µM
same,TGI,SN12C renal,> 100 µM
same,TGI,MCF7 breast,> 100 µM
same,TGI,HT29 colon,> 100 µM
same,TGI,RPMI-8226 leukemia,> 100 µM
same,TGI,TK-10 renal,> 100 µM
same,TGI,M14 melanoma,> 100 µM
CCc1n[nH]c(=S)n1/N=C\c1ccc(-c2ccccc2Cl)o1,TGI,OVCAR-4 ovarian,> 100 µM
same,TGI,MDA-N,54.1 µM
same,TGI,CCRF-CEM leukemia,> 100 µM
same,TGI,HCT-15 colon,83.3 µM
same,TGI,U251 CNS,97.4 µM
same,TGI,NCI-H460 lung,> 100 µM
same,TGI,NCI/ADR-RES ovarian,53.7 µM
same,TGI,KM12 colon,> 100 µM
same,TGI,HCC-2998 colon,83.3 µM
same,TGI,UACC-62 melanoma,> 100 µM
same,TGI,MALME-3M melanoma,> 100 µM
same,TGI,NCI-H226 lung,41.6 µM
same,TGI,OVCAR-3 ovarian,> 100 µM
same,TGI,ACHN renal,> 100 µM
same,TGI,MOLT-4 leukemia,45.6 µM
same,TGI,T-47D breast,87.5 µM
same,TGI,K-562 leukemia,53.2 µM
same,TGI,CAKI-1 renal,> 100 µM
same,TGI,SF-539 CNS,61.9 µM
same,TGI,COLO 205 colon,> 100 µM
same,TGI,A549 NSCLC,> 100 µM
same,TGI,PC-3 prostate,> 100 µM
same,TGI,NCI-H23 lung,82 µM
same,TGI,NCI-H522 lung,65.8 µM
same,TGI,HOP-92 NSCLC,> 100 µM
same,TGI,IGROV1 ovarian,> 100 µM
same,TGI,EKVX NSCLC,> 100 µM
same,TGI,HL-60(TB) leukemia,68 µM
same,TGI,HOP-62 NSCLC,> 100 µM
same,TGI,SW-620 colon,> 100 µM
same,TGI,RXF 393 renal,> 100 µM
same,TGI,HCT-116 colon,66.6 µM
same,TGI,UO-31 renal,> 100 µM
same,TGI,BT-549 breast,66.6 µM
same,TGI,MDA-MB-231 breast,> 100 µM
same,TGI,SNB-19 CNS,> 100 µM
same,TGI,SF-268 CNS,> 100 µM
same,TGI,SNB-75 CNS,> 100 µM
same,TGI,LOX IMVI melanoma,66.6 µM
same,TGI,HS 578T breast,> 100 µM
same,TGI,SR leukemia,53.5 µM
same,TGI,MDA-MB-435,48.4 µM
same,TGI,786-0 renal,86.6 µM
same,TGI,OVCAR-8 ovarian,61.7 µM
same,TGI,SK-MEL-5 melanoma,31.2 µM
same,TGI,OVCAR-5 ovarian,> 100 µM
same,TGI,SK-MEL-2 melanoma,98 µM
same,TGI,SK-OV-3 ovarian,> 100 µM
same,TGI,SF-295 CNS,> 100 µM
same,TGI,DU-145 prostate,> 100 µM
same,TGI,UACC-257 melanoma,> 100 µM
same,TGI,A498 renal,> 100 µM
same,TGI,SN12C renal,> 100 µM
same,TGI,MCF7 breast,> 100 µM
same,TGI,HT29 colon,> 100 µM
same,TGI,RPMI-8226 leukemia,51.3 µM
same,TGI,TK-10 renal,> 100 µM
same,TGI,M14 melanoma,> 100 µM

# From PubChem BioAssay (NCI)
